As usually defined, the IC50 is the midpoint of a concentration-inhibition curve.

We go through 17 compounds from patent publication US10874670B2, “Substituted fused heteroaromatic compounds as kinase inhibitors and the use thereof” (IMPACT THERAPEUTICS, INC., priority 2017, dated 2020).

For assay [1], the system named is human breast cancer cell MDA-MB-468. Put plainly: MTT assay, growth of MDA-MB-468 cells. It is filed as cell-based. As to conditions: for IC50: Homo sapiens, MDA-MB-468, 168 h, 7 days, MTT. As to the method:
Inhibitory Effects of N,N-dimethyl-3-(4-(1-(tetrahydro-2H-pyran-4-yl)-[1,2,4]triazolo[4,3-a]quinoxalin-8-yl)phenoxy)propan-1-amine and its Analogues on the Growth of Human Breast Cancer Cell MDA-MB-468 were Determined by MTT Assay
MDA-MB-468 cells were digested by trypsinase, centrifuged at 800 rpm for 5 minutes, the supernatant was discarded, resuspended with fresh medium (RPMI 1640 medium+10% FBS) and counted. The cells were seeded into 96-well cell culture plate with appropriate cell density and incubated overnight in a 37° C. 5% CO2 incubator. The stock solutions of the tested compound and the reference compound AZD0156 were serially diluted to 8 concentrations by DMSO at the ratios of 1:3 and 1:10, respectively: the first concentration was 100 μM or 1 μM, and the last concentration was negative control of DMSO (0 μM, the final concentration of DMSO was 1%). 5 μL of each concentration was added to 120 μL of medium (25 times diluted) and mixed by shaking. The overnight cells were taken and the culture medium was removed, 195 μL of fresh medium was added to each well, and 5 μL of diluted medium containing the corresponding concentration of the tested sample was added respectively, and the culture plate was then placed in the 5% CO2 cell culture incubator at 37° C. for 7 days (On the fourth day, the medium containing drugs was removed and fresh medium containing drugs was added for continuous cultivation). After removing the original solution, 100 μL of fresh serum-free DMEM medium containing MTT (0.5 mg/mL) was added to each well, the culture was continued. After 4 hours, the original solution was removed, 100 μL of DMSO was added into each well, the 96-well plates were shaken away from light for 10 minutes and placed in a multi-function reader to read the absorbance at the wavelength of 552/630/690 nm. GraphPad Prism 6.0 was used to analyze the data. The inhibitory activity of compounds on cell proliferation was plotted based on cell viability and compound concentration. The IC50 value was fitted by a sigmoidal dose response curve equation Y=100/(1+10^(Log C−Log IC50)), where C was the concentration of compound.
Table 4 summarizes the inhibitory effects of compounds on the growth of human breast cancer cell MDA-MB-468 (IC50).

The target in another assay is ATM enzyme (human) (Homo sapiens, UniProt Q13315). Put plainly: ATM kinase assay (HTRF, GST-cMyc-p53 substrate). As to conditions: 0.5 h, read-out: Inh (%) of ATM kinase; for inhibition at 0.001 µM: C 0.001 μm (final concentration of compound); for inhibition at 0.01 µM: C 0.01 μm (final concentration of compound); for inhibition at 0.1 µM: C 0.1 μm (final concentration of compound); for inhibition at 1 µM: C 1 μm (final concentration of compound). In kind it is biochemical. The method in brief:
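Reaction with GST-cMyc-p53 substrate started with Mg/ATP, run 30 minutes at room temperature, then stopped with EDTA. Phospho-p53 (Ser15) detected by HTRF with Eu-labelled anti-phospho antibody and d2 anti-GST, signal as 10000×(Em665/Em620). Duplicates; IC50 from a curve fit with slope factor.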

Assay [2] relates to human colon cancer cell SW620. In words: MTT assay, growth of SW620 cells, compounds combined with CPT-11. The note with it: for IC50: Homo sapiens, SW-620, 120 h, combined with CPT-11 (205 nM medium), 5 days, MTT. It is filed as cell-based. Put shortly:
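SW620 cells in RPMI 1640/10% FBS were exposed to 8-point compound dilutions (top 10 or 1 μM, 1% DMSO final) plus CPT-11 (205 nM in added medium) for 5 days at 37 °C. Viability by MTT (0.5 mg/mL, 4 h) absorbance; IC50 from sigmoidal fit.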

ATM enzyme (human), sequence (Q13315 whole entry): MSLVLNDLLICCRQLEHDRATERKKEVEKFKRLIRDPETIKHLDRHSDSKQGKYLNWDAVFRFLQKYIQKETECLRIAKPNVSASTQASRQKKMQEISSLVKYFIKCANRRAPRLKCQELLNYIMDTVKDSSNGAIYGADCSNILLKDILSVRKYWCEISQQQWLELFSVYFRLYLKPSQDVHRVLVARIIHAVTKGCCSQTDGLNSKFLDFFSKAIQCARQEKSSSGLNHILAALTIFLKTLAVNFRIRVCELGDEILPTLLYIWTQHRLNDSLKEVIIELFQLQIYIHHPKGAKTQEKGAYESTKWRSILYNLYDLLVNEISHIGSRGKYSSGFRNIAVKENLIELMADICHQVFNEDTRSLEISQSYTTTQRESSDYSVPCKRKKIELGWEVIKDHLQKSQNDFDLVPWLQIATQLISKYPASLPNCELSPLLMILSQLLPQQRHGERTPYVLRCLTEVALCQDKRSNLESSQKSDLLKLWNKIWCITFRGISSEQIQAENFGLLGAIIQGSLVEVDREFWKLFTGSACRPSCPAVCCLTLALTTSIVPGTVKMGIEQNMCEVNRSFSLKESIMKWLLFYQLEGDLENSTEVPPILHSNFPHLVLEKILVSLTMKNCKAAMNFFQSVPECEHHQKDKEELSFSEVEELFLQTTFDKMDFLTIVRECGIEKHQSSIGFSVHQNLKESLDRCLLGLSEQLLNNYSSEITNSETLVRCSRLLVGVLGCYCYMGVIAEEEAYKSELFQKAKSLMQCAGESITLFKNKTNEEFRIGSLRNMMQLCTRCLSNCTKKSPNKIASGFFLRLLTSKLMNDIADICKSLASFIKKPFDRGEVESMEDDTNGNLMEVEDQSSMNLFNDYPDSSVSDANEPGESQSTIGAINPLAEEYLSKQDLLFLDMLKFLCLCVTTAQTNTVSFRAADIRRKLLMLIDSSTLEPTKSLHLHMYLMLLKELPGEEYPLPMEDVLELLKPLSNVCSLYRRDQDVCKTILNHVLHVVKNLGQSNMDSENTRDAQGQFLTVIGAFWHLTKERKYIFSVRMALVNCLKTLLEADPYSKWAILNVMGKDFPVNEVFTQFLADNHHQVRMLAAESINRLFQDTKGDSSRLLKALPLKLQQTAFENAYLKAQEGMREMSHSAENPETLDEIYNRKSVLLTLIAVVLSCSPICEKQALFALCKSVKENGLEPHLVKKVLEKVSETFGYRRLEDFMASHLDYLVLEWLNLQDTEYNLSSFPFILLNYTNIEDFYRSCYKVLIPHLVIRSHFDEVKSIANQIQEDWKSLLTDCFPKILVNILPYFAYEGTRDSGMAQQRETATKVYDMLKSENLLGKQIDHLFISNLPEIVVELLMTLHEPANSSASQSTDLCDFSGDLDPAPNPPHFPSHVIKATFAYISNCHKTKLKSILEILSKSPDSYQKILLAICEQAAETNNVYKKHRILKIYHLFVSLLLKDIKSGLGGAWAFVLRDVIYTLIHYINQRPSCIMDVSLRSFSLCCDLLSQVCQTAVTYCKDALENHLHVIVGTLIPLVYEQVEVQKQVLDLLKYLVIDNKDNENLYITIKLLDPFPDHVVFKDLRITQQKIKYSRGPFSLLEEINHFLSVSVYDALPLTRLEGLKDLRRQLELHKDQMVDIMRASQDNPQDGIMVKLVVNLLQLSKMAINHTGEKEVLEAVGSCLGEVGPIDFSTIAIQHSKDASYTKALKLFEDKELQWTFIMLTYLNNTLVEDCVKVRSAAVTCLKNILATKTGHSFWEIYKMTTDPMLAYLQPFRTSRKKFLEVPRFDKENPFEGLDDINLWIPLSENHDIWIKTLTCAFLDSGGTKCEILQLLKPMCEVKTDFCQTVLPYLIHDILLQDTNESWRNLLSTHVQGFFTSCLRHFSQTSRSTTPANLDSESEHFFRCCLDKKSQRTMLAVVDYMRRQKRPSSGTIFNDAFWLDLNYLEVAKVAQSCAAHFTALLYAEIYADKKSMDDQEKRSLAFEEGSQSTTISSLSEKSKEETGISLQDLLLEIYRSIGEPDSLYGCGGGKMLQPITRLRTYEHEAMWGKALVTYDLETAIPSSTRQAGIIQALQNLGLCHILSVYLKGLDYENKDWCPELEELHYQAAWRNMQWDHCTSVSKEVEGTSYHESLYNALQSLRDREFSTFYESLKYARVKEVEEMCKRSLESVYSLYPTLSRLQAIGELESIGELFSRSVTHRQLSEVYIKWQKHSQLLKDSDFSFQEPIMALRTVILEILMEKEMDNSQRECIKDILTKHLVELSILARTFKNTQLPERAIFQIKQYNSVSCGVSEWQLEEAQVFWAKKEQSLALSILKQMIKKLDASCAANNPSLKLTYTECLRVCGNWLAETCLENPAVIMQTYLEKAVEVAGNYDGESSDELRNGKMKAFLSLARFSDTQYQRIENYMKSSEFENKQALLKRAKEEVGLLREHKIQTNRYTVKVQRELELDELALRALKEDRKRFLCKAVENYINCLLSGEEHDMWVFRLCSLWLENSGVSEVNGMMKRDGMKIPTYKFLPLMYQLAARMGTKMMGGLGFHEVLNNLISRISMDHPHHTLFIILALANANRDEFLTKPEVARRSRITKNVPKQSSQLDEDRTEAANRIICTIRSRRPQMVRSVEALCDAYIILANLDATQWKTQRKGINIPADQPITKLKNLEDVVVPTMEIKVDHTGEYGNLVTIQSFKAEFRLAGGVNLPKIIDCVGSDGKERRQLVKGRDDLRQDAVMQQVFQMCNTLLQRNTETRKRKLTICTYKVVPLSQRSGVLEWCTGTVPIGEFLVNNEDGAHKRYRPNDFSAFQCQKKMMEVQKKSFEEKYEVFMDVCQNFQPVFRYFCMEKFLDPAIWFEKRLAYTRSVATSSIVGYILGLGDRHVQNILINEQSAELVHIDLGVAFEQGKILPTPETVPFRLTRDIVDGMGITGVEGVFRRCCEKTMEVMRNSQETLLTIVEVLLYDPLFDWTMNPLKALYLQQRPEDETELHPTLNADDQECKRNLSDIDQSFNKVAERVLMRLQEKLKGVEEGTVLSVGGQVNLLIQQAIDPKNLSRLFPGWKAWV

For the compound `C[C@@H]1CN(c2nnc3cnc4ccc(-c5ccc(OCCCN(C)C)cc5)cc4n23)C[C@H](C)N1C` [Example 23, N,N-dimethyl-3-(4-(1-((3S,5R)-3,4,5-trimethylpiperazin-1-yl)-[1,2,4]triazolo[4,3-a]quinoxalin-8-yl)phenoxy)propan-1-amine], the 50% inhibitory concentration (IC50) in assay [1] was 54.1 nM. For the same compound, the “inhibitory effect on the growth of MDA-MB-468 cells (in words)” value in assay [1] (MTT assay) is listed as “inhibited the growth of MDA-MB-468 cell”. On ATM enzyme (human), the inhibition at 0.001 µM was 60%, the inhibition at 0.01 µM came to 81%, the inhibition at 0.1 µM was 99% and the inhibition at 1 µM was found to be 100%. For the same compound, in assay [2], the IC50 worked out at 65.1 nM. Besides, the “inhibitory effect on the growth of SW620 cells (in words)” value in assay [2] (MTT assay, combined with CPT-11) is reported as “inhibited the growth of SW620 cell”.
As to `CN(C)CCCOc1ccc(-c2cc3c(cn2)ncc2nnc(C4CCOCC4)n23)cc1` [Example 30, N,N-dimethyl-3-(4-(1-(tetrahydro-2H-pyran-4-yl)pyrido[3,4-e][1,2,4]triazolo[4,3-a]pyrazin-8-yl)phenoxy)propan-1-amine], the IC50 in assay [1] and in assay [2] was greater than 10000 nM throughout. The inhibition at 1 µM at ATM enzyme (human) was found to be 14%.
In the case of `CN(C)C1CCN(c2ccc(-c3ccc4ncc5nnc(C6CCOCC6)n5c4c3)cc2F)CC1` [Example 44, 1-(2-fluoro-4-(1-(tetrahydro-2H-pyran-4-yl)-[1,2,4]triazolo[4,3-a]quinoxalin-8-yl)phenyl)-N,N-dimethylpiperidin-4-amine], in assay [1], it took 183 nM to reach half-maximal inhibition (IC50). In addition, on ATM enzyme (human), the inhibition at 0.01 µM was 67%, the inhibition at 0.1 µM amounted to 94% and the inhibition at 1 µM was 100%. For the same compound, the half-inhibitory concentration (IC50) in assay [2] turned out to be 152 nM.
For `CN(C)CCCOc1ccc(-c2ccc3ncc4nnc(C5CCOCC5)n4c3n2)cc1` [Example 31, N,N-dimethyl-3-(4-(9-(tetrahydro-2H-pyran-4-yl)pyrido[3,2-e][1,2,4]triazolo[4,3-a]pyrazin-2-yl)phenoxy)propan-1-amine] the same measures were 335 nM, 51%, 92%, 100% and 262 nM.
Take `CNC1CCN(c2ccc(-c3cc4c(cn3)ncc3nnc(C5CCOCC5)n34)cc2)CC1` [Example 70, N-methyl-1-(4-(1-(tetrahydropyran-4-yl)pyrido[3,4-e][1,2,4]triazolo[4,3-a]pyrazin-8-yl)phenyl)piperidin-4-amine]: the 50% inhibitory concentration (IC50) is greater than 100000 nM in assay [1] and greater than 10000 nM in assay [2]. The inhibition at 1 µM at ATM enzyme (human) came to 4%.
For `CNC1CCN(c2ccc(-c3ccc4ncc5nnc(CN6CCOCC6)n5c4c3)cc2)CC1` [Example 66, N-methyl-1-(4-(1-(morpholinomethyl)-[1,2,4]triazolo[4,3-a]quinoxalin-8-yl)phenyl)piperidin-4-amine] the same measures were 430 nM, 589 nM and 100%.
The matching figures for `CCNC1CCN(c2ccc(-c3ccc4ncc5nnc(C6CCOCC6)n5c4n3)cc2)CC1` [Example 75, N-ethyl-1-(4-(9-(tetrahydro-2H-pyran-4-yl)pyrido[3,2-e][1,2,4]triazolo[4,3-a]pyrazin-2-yl)phenyl)piperidin-4-amine]: 168 nM, 158 nM and 100%.
On to `CN(C)CCCOc1ccc(-c2ccc3ncc4cnc(C5CCOCC5)n4c3c2)cc1` [Example 37, N,N-dimethyl-3-(4-(1-(tetrahydro-2H-pyran-4-yl)imidazo[1,5-a]quinoxalin-8-yl)phenoxy)propan-1-amine], for which the results for the concentration for half-maximal inhibition (IC50) in assay [1] and in assay [2] were 4710 nM and 4250 nM, respectively. The inhibition at 1 µM on ATM enzyme (human) was 18%.
For `CN(C)C1CCC(c2ccc(-c3ccc4ncc5nnc(C6CCOCC6)n5c4c3)cc2)CC1` (stereo not drawn) [Example 18, N,N-dimethyl-4-(4-(1-(tetrahydro-2H-pyran-4-yl)-[1,2,4]triazolo[4,3-a]quinoxalin-8-yl)phenyl)cyclohexan-1-amine] the same measures were greater than 100000 nM, greater than 100000 nM and 34%.
As for `CN(C)C1CCN(c2ccc(-c3ccc4ncc5nnc(C6CCOCC6)n5c4c3)cc2C(F)(F)F)CC1` [Example 47, N,N-dimethyl-1-(4-(1-(tetrahydro-2H-pyran-4-yl)-[1,2,4]triazolo[4,3-a]quinoxalin-8-yl)-2-(trifluoromethyl)phenyl)piperidin-4-amine], inhibition in assay [1] was half-maximal at 145 nM (IC50). On ATM enzyme (human), the inhibition at 0.01 µM came to 72%, the inhibition at 0.1 µM worked out at 96% and the inhibition at 1 µM came out at 100%. Further, in assay [2], the IC50 was 128 nM.
Consider `C[C@@H]1CN(c2nnc3cnc4ccc(-c5ccc(N6CCC(N(C)C)CC6)cc5)cc4n23)C[C@H](C)N1C` [Example 58, N,N-dimethyl-1-(4-(1-((3S,5R)-3,4,5-trimethylpiperazin-1-yl)-[1,2,4]triazolo[4,3-a]quinoxalin-8-yl)phenyl)piperidin-4-amine], for which, in assay [1], the half-maximal inhibitory concentration (IC50) is 68.8 nM. Further, on ATM enzyme (human), the inhibition at 0.001 µM came out at 38%, the inhibition at 0.01 µM amounted to 89%, the inhibition at 0.1 µM worked out at 100% and the inhibition at 1 µM is 100%. Besides, the IC50 in assay [2] was determined as 47.5 nM.
For `CN(C)C1CCN(c2ccc(-c3ccc4ncc5nnc(C6CCOCC6)n5c4n3)cn2)CC1` [Example 76, N,N-dimethyl-1-(5-(9-(tetrahydro-2H-pyran-4-yl)pyrido[3,2-e][1,2,4]triazolo[4,3-a]pyrazin-2-yl)pyridin-2-yl)piperidin-4-amine], the IC50 came out at 262 nM in assay [1] and 818 nM in assay [2]. Moreover, the inhibition at 1 µM on ATM enzyme (human) amounted to 100%.
For `Cc1cc(-c2ccc3ncc4nnc(C5CCOCC5)n4c3c2)ccc1N1CCC(N(C)C)CC1` [Example 46, N,N-dimethyl-1-(2-methyl-4-(1-(tetrahydro-2H-pyran-4-yl)-[1,2,4]triazolo[4,3-a]quinoxalin-8-yl)phenyl)piperidin-4-amine] the same measures were 930 nM, 612 nM and 100%.
The compound `CN(C)C1CCN(c2ccc(-c3ccc4ncc5nnc(C6CCOCC6)n5c4c3)c(F)c2)CC1` [Example 48, 1-(3-fluoro-4-(1-(tetrahydro-2H-pyran-4-yl)-[1,2,4]triazolo[4,3-a]quinoxalin-8-yl)phenyl)-N,N-dimethylpiperidin-4-amine] returned an IC50 in assay [1] of 161 nM. At ATM enzyme (human), the inhibition at 0.01 µM is 62%, the inhibition at 0.1 µM worked out at 93% and the inhibition at 1 µM is 100%. For the same compound, the concentration for half-maximal inhibition (IC50) in assay [2] turned out to be 184 nM.
On to `CN(C)C1CCN(c2ccc(-c3ccc4ncc5nnc(C6CCOCC6)n5c4c3)c(Cl)c2)CC1` [Example 49, 1-(3-chloro-4-(1-(tetrahydro-2H-pyran-4-yl)-[1,2,4]triazolo[4,3-a]quinoxalin-8-yl)phenyl)-N,N-dimethylpiperidin-4-amine], for which the concentration for half-maximal inhibition (IC50) in assay [1] was found to be 1580 nM; in assay [2], 1030 nM. Moreover, the inhibition at 1 µM on ATM enzyme (human) is 100%.
In assay [1], `CN(C)CCCOc1ccc(-c2ccc3ncc4nnc(C5CCOCC5)n4c3c2)nc1` [Example 5, N,N-dimethyl-3-((6-(1-(tetrahydro-2H-pyran-4-yl)-[1,2,4]triazolo[4,3-a]quinoxalin-8-yl)pyridin-3-yl)oxy)propan-1-amine] returned a half-maximal inhibitory concentration (IC50) greater than 100000 nM. Also, at ATM enzyme (human), the inhibition at 0.01 µM is 7%, the inhibition at 0.1 µM is 47% and the inhibition at 1 µM is 96%. For the same compound, in assay [2], the IC50 is greater than 100000 nM.
`NC1CCN(c2ccc(-c3ccc4ncc5nnc(C6CCOCC6)n5c4n3)cc2)CC1` [Example 73, 1-(4-(9-(tetrahydro-2H-pyran-4-yl)pyrido[3,2-e][1,2,4]triazolo[4,3-a]pyrazin-2-yl)phenyl)piperidin-4-amine]: the half-maximal inhibitory concentration (IC50) stood at 210 nM in assay [1] and 191 nM in assay [2]. Also, the inhibition at 1 µM at ATM enzyme (human) stood at 100%.
